{"source": "paper PMC9620421", "about": "“The antimicrobial peptide Magainin-2 interacts with BamA impairing folding of E. coli membrane proteins” (Frontiers in Chemistry, 2022)", "molecules": {"B1": {"name": "Magainin-2 (peptide, UniProt P11006 83-105, looked up)", "peptide": "GIGKFLHSAKKFGKAFVGEIMNS", "notes": "Magainin-2 (Mag-2), antimicrobial peptide of the African clawed frog Xenopus laevis; cut product of the magainins precursor; the docking text numbers it to Ser23; also called Mag-2; Maganin-2"}}, "key": {"BamA [1]": {"tested_on": "BamA", "details": "BamA identified as target; Gram-negative bacteria; ref Hart et al., 2019; Li et al., 2020; cited from earlier work", "text": "Among the putative Mag-2 interactors, we focused our attention on the Bam complex as the proteomic experiment led to the identification of all the protein components of this complex essential for bacterial surviving. In particular, BamA is the central component of the Bam complex while BamB, -C, -D and -E are four lipoproteins with a secondary role."}, "OmpA [2]": {"tested_on": "OmpA", "experiment": "Western blot densitometry of OmpA in E. coli after Mag-2 incubation", "assay_type": "cell-based", "details": "75 µM Mag-2, 1 h", "method": "The E. coli cells were grown in the presence and in the absence of 50 µM Mag-2 for 1h, 2h and 3 h. The level of the OmpA protein was identified by Western Blot using a specific antiOmpA antibody. The amount of OmpA was then evaluated by densitometric analysis of the corresponding western blotted band. […] The same experiment was also carried out using a higher concentration of Mag-2 (75 µM) for as fixed time (1 h)."}, "OmpF": {"tested_on": "OmpF", "details": "50 µM Mag-2 for 1h, 2 h and 3h; triplicate LC-MS/MS; t-test p < 0.05; with increasing time of incubation"}, "bacterial membrane": {"tested_on": "bacterial membrane", "details": "ref Billah et al., 2022; cited from earlier work", "text": "Peptide binding is favoured by both hydrophobic interactions between non-polar amino acids and the hydrophobic nucleus of the membrane and electrostatic interactions between the positive charges of the peptides and the negative charges of lipids ([Bahar and Ren, 2013]). Although the mechanism of action is not yet fully understood at molecular level, it is known that Magain ..."}, "BamAp5": {"target": "T1, BamAp5 (Escherichia coli, UniProt P0A940)", "T1 construct": "6xHis; made in house; host or cells: E. coli BL21", "experiment": "Intrinsic fluorescence binding titration", "set-up": "species or system E. coli", "method": "Fluorescence experiments were performed on a Fluoromax-4 spectrofluorometer from Horiba Scientific, using 1 cm optical path-length quartz cell under controlled temperature conditions (Peltier control system at 20°C). Titrations were carried out in 20 mM Tris-HCl pH 8.4, 0.2% triton. The intrinsic fluorescence intensity of BamAP5 at a concentration of 3.7 × 10^−6 M was monitored at 280 nm (slit 4 nm) and the emission was monitored at 308 nm (slit 4 nm) without and in the presence of increasing concentrations of Mag-2 peptide (from 2 to 18.64 µM). All experiments were performed in duplicate. The change in the fluorescence intensity of the reaction set was fit into “one site-specific binding” equation of GraphPad Prism 5 (GraphPad Software)."}, "OmpA [3]": {"tested_on": "OmpA", "experiment": "LC-MRM/MS quantification of OmpA in E. coli after Mag-2 incubation", "assay_type": "cell-based", "text": "Cone voltage was set to 35V."}, "BamA [4]": {"tested_on": "BamA"}, "[5]": {"tested_on": "E. coli membrane proteins", "experiment": "Pull-down proteomics, number of putative interactors", "assay_type": "binding", "details": "biotinylated Mag-2 on avidin-agarose, biotin elution, LC-MS/MS; absent in control"}, "[6]": {"details": "cited from earlier work", "text": "Biophysical studies led to hypothesize three models that can explain the membrane disruption by AMPs: barrel-stave, toroidal pore and carpet mechanisms ([Di Somma et al., 2020]). According to these mechanisms, antimicrobial peptides interact with bacterial outer membranes, perturbing their integrity and causing their disaggregation ([Huang, 2006]). Most of AMPs show pore formation after binding to the membrane surface. X-ray crystallization studies and spectroscopic analyses reported that Alamethicin, a channel-forming peptide, insert into the lipid bilayer to form a barrel-stave pore structur ..."}, "[7]": {"target": "T2, 6XHis-tagged E. coli BamAp5 (β-barrel domain and fifth POTRA domain, residues 344-810) (E. coli, UniProt P0A940 344-810)", "T2 construct": "Monomer by DLS; also called recombinant form of BamA", "experiment": "other fluorescence titration; intrinsic fluorescence of 3.7 x 10^-6 M BamAp5 (excitation 280 nm, emission 308 nm) with Mag-2 from 2 to 18.64 µM; 20 mM Tris-HCl pH 8.4, 0.2% triton, 20°C; one site-specific binding fit; duplicate", "details": "both partners purified"}}, "note": "Like-named read-outs stand apart in the source and are kept apart here.", "data": [{"molecule": "NC(N)=NC(=O)CC(Nc1nc(N=C(N)N)nc(NC2CCC(NC(=O)Cn3nnc(-c4ccc(F)cc4)n3)CC2)n1)C1CC1", "note": "(stereo not drawn) [MRL-494]", "values": [{"measurement": "inhibition of the assembly of OMPs", "setting": "BamA [1]", "result": "inhibits the assembly of OMPs in Gram-negative bacteria"}]}, {"molecule": "Magainin-2 (GIGKFLHSAKKFGKAFVGEIMNS) [Mag-2, well-known antimicrobial peptide isolated from the African clawed frog Xenopus laevis]", "values": [{"measurement": "change of OmpA level", "setting": "OmpA [2]", "result": "rapid and drastic reduction of the OmpA level"}, {"measurement": "amount of OmpF by MRM", "setting": "OmpF", "result": "clear decrease"}, {"measurement": "mechanism of antimicrobial activity", "setting": "bacterial membrane", "result": "toroidal mechanism"}, {"measurement": "Kd", "setting": "BamAp5; intrinsic fluorescence quenching, ex 280 nm, em 308 nm, BamAP5 3.7 × 10^−6 M, Mag-2 2 to 18.64 µM, 20 mM Tris-HCl pH 8.4, 0.2% triton, 20°C, duplicate, one site-specific binding fit, read-out: dissociation constant of the complex, Kd", "result": "3500 ± 100", "unit": "nM"}, {"measurement": "change of BamAP5 intrinsic fluorescence", "setting": "BamAp5; λexc 280 nm, BamAp5 3.7 × 10^−6 M, increasing Mag-2, 20°C", "result": "fluorescence decreased at increasing concentrations of the peptide"}, {"measurement": "amount of OmpA peptide 252-263 (DGSVVVLGYTDR) by MRM peak area", "setting": "OmpA [3]; 50 µM Mag-2, 1 h, vs control", "result": "decrease of the OmpA peptide"}, {"measurement": "amount of OmpA by MRM", "setting": "OmpA [3]; 50 µM Mag-2 for 1h, 2 h and 3h, triplicate LC-MS/MS, t-test p < 0.05, with increasing time of incubation", "result": "clear decrease"}, {"measurement": "hydrodynamic radius of the protein in presence of peptide", "setting": "BamA [4]; DLS, 532.5 nm, peptide concentration ten times that of the protein, protein without peptide 4.7 ± 0.1 nm, at least 10 independent measurements", "result": "4.3 ± 0.1", "unit": "nm"}, {"measurement": "aggregation state by DLS", "setting": "BamA [4]; samples without and with peptide (ten times higher concentration than protein)", "result": "only the protein monomer is present in both samples"}, {"measurement": "number of putative protein interactors", "setting": "[5]", "result": 35}]}, {"molecule": "Melittin", "values": [{"measurement": "membrane pore formation", "setting": "[6]; fluorescence studies with phospholipid vesicles, ref Lohner and Blondelle, 2005", "result": "formation of pore coupled with the translocation of peptide across the lipid bilayer"}]}, {"molecule": "COC(=O)c1c(NC(=O)c2ccc([N+](=O)[O-])o2)sc2c1CCN(C(C)C)C2", "note": "[IMB-H4]", "values": [{"measurement": "inhibition of the assembly of OMPs", "setting": "BamA [1]", "result": "inhibits the assembly of OMPs in Gram-negative bacteria"}]}, {"molecule": "Alamethicin", "values": [{"measurement": "membrane pore formation", "setting": "[6]; X-ray crystallization and spectroscopic analyses, ref Qian et al., 2008", "result": "insert into the lipid bilayer to form a barrel-stave pore structure consisting of eight alamethicin helices"}]}, {"molecule": "B1", "values": [{"measurement": "Kd", "setting": "[7]", "result": "3.5 ± 0.1", "unit": "nM"}]}]}
